We go through 23 molecules from US9266876B2 (Actelion Pharmaceuticals Ltd., priority 2012, dated 2016).

The structures appear in SMILES notation.

One test addresses human CXCR3A (Homo sapiens (Human), UniProt P49682). Description: FLIPR assay. It is filed as cell-based. Particulars: CHO-K1 cells expressing the human CXCR3A coupled to Galpha(16); CXCL10 agonist 20 nM; Fluo-4-AM fluorescence; mean values if determined several times. A digest of the protocol:
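CHO-K1 cells expressing CXCR3A coupled to Gα16 were loaded with Fluo-4-AM for 1 h in Hepes-buffered HBSS, pH 7.4, with 5 mM probenecid. Compound dilutions were added on the FLIPR, followed by CXCL10 (added as a 20 nM solution). Baseline-subtracted peak fluorescence was fitted to a single-site curve for IC50.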

The target in another test is CXCR3 (Homo sapiens (Human), UniProt P49682). Description: Receptor internalization assay. Format: cell-based. Particulars: human whole blood; final CXCL10 concentration 9 nM; 30 min 37° C.; CXCR3 cell surface expression on CD3 positive cells, flow cytometer; read-out: Internalization IC50. In a few lines:
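In human whole blood, compounds were incubated with CXCL10 (9 nM final) for 30 min at 37 °C to drive receptor internalization, then stained with anti-CXCR3/CD3 antibodies and lysed of red cells. Flow cytometry measured mean surface CXCR3 fluorescence on CD3+ cells, and IC50 came from single-site dose-response fits.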
(In general: In flow cytometry, cells or beads pass a laser one at a time.)

Chain of human CXCR3A (P49682 whole entry): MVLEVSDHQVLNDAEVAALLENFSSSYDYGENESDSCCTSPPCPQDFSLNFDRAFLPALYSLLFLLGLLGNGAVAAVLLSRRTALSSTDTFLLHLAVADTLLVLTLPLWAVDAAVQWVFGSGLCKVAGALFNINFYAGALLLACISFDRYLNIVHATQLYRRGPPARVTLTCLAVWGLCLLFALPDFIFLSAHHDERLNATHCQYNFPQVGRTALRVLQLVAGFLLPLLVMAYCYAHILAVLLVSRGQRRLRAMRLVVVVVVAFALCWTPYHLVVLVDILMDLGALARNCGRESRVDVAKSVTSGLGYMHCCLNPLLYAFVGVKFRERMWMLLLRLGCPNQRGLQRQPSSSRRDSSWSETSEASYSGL
Chain of CXCR3 (P49682 whole entry): as above

What is called IC50 is the concentration at which inhibition is half-maximal. With `C[C@@H]1CN(c2sc(C(F)(F)F)nc2-c2nc3cccnc3[nH]2)CCN1C(=O)Cn1cnc2cccnc21` [Example 169, 2-Imidazo[4,5-b]pyridin-3-yl-1-{(R)-4-[4-(3H-imidazo[4,5-b]pyridin-2-yl)-2-trifluoromethyl-thiazol-5-yl]-2-methyl-piperazin-1-yl}-ethanone], the results for the IC50 on human CXCR3A and at CXCR3 were 0.3 nM and 685 nM, respectively.
For `C[C@@H]1CN(c2sc(C(F)(F)F)nc2-c2nc3ccncc3[nH]2)CCN1C(=O)Cn1cnc2cccnc21` [Example 170, 2-Imidazo[4,5-b]pyridin-3-yl-1-{(R)-4-[4-(3H-imidazo[4,5-c]pyridin-2-yl)-2-trifluoromethyl-thiazol-5-yl]-2-methyl-piperazin-1-yl}-ethanone] the same measures were 6 nM and 1060 nM.
For `C[C@@H]1CN(c2sc(C(F)(F)F)nc2-c2nc3cncnc3[nH]2)CCN1C(=O)Cn1cnc2cccnc21` [Example 171, 2-Imidazo[4,5-b]pyridin-3-yl-1-{(R)-2-methyl-4-[4-(9H-purin-8-yl)-2-trifluoromethyl-thiazol-5-yl]-piperazin-1-yl}-ethanone] the same measures were 1 nM and 1080 nM.
As for `C[C@@H]1CN(c2sc(C(F)(F)F)nc2-c2nc3ccccc3[nH]2)CCN1C(=O)Cn1cnc2ccccc21` [Example 172, 2-Benzoimidazol-1-yl-1-{(R)-4-[4-(1H-benzoimidazol-2-yl)-2-trifluoromethyl-thiazol-5-yl]-2-methyl-piperazin-1-yl}-ethanone], the IC50 at human CXCR3A was determined as 1 nM; at CXCR3, 73 nM.
For `C[C@@H]1CN(c2sc(C(F)(F)F)nc2-c2nc3ccccc3[nH]2)CCN1C(=O)Cn1cccn1` [Example 173, 1-{(R)-4-[4-(1H-Benzoimidazol-2-yl)-2-trifluoromethyl-thiazol-5-yl]-2-methyl-piperazin-1-yl}-2-pyrazol-1-yl-ethanone] the same measures were 0.5 nM and 395 nM.
Take `Cc1ccn(CC(=O)N2CCN(c3sc(C(F)(F)F)nc3-c3nc4ccccc4[nH]3)C[C@H]2C)n1` [Example 174, 1-{(R)-4-[4-(1H-Benzoimidazol-2-yl)-2-trifluoromethyl-thiazol-5-yl]-2-methyl-piperazin-1-yl}-2-(3-methyl-pyrazol-1-yl)-ethanone]: the IC50 at human CXCR3A was 0.2 nM; at CXCR3, 53 nM.
Regarding `C[C@@H]1CN(c2sc(C(F)(F)F)nc2-c2nc3ccccc3[nH]2)CCN1C(=O)Cn1cc(Cl)cn1` [Example 175, 1-{(R)-4-[4-(1H-Benzoimidazol-2-yl)-2-trifluoromethyl-thiazol-5-yl]-2-methyl-piperazin-1-yl}-2-(4-chloro-pyrazol-1-yl)-ethanone], the values for the IC50 on human CXCR3A and at CXCR3 were 0.1 nM and 227 nM, respectively.
With `Cc1ccnn1CC(=O)N1CCN(c2sc(C(F)(F)F)nc2-c2nc3ccccc3[nH]2)C[C@H]1C` [Example 176, 1-{(R)-4-[4-(1H-Benzoimidazol-2-yl)-2-trifluoromethyl-thiazol-5-yl]-2-methyl-piperazin-1-yl}-2-(5-methyl-pyrazol-1-yl)-ethanone], the IC50 turned out to be 0.1 nM at human CXCR3A and 111 nM at CXCR3.
Turning to `Cc1nc(C)n(CC(=O)N2CCN(c3sc(C(F)(F)F)nc3-c3nc4ccccc4[nH]3)C[C@H]2C)n1` [Example 178, 1-{(R)-4-[4-(1H-Benzoimidazol-2-yl)-2-trifluoromethyl-thiazol-5-yl]-2-methyl-piperazin-1-yl}-2-(3,5-dimethyl-[1,2,4]triazol-1-yl)-ethanone], the IC50 on human CXCR3A turned out to be 2 nM; on CXCR3 it was 224 nM.
Turning to `C[C@@H]1CN(c2sc(C(F)(F)F)nc2-c2nc3ccc(N4CCN(C)CC4)cc3[nH]2)CCN1C(=O)Cn1cccn1` [Example 179, 1-((R)-2-Methyl-4-{4-[6-(4-methyl-piperazin-1-yl)-1H-benzoimidazol-2-yl]-2-trifluoromethyl-thiazol-5-yl}-piperazin-1-yl)-2-pyrazol-1-yl-ethanone], the results for the IC50 on human CXCR3A and at CXCR3 were 2 nM and 138 nM, respectively.
For `C[C@@H]1CN(c2sc(C(F)(F)F)nc2-c2nc3ccc(N(C)C)cc3[nH]2)CCN1C(=O)Cn1cccn1` [Example 180, 1-{(R)-4-[4-(6-Dimethylamino-1H-benzoimidazol-2-yl)-2-trifluoromethyl-thiazol-5-yl]-2-methyl-piperazin-1-yl}-2-pyrazol-1-yl-ethanone] the same measures were 2 nM and 703 nM.
In the case of `C[C@@H]1CN(c2sc(C(F)(F)F)nc2-c2nc3ccc(CN4CCCCC4)cc3[nH]2)CCN1C(=O)Cn1cccn1` [Example 181, 1-{(R)-2-Methyl-4-[4-(6-piperidin-1-ylmethyl-1H-benzoimidazol-2-yl)-2-trifluoromethyl-thiazol-5-yl]-piperazin-1-yl}-2-pyrazol-1-yl-ethanone], the IC50 was found to be 58 nM on human CXCR3A and 3090 nM at CXCR3.
For `C[C@@H]1CN(c2sc(C(F)(F)F)nc2-c2nc3ccc(CN(C)C)cc3[nH]2)CCN1C(=O)Cn1cccn1` [Example 182, 1-{(R)-4-[4-(6-Dimethylaminomethyl-1H-benzoimidazol-2-yl)-2-trifluoromethyl-thiazol-5-yl]-2-methyl-piperazin-1-yl}-2-pyrazol-1-yl-ethanone], the half-maximal inhibitory concentration (IC50) on human CXCR3A came out at 27 nM; at CXCR3, 2240 nM.
Take `COC1CCN(Cc2ccc3nc(-c4nc(C(F)(F)F)sc4N4CCN(C(=O)Cn5cccn5)[C@H](C)C4)[nH]c3c2)C1` (stereo partly drawn) [Example 183, 1-((R)-4-{4-[6-(3-Methoxy-pyrrolidin-1-ylmethyl)-1H-benzoimidazol-2-yl]-2-trifluoromethyl-thiazol-5-yl}-2-methyl-piperazin-1-yl)-2-pyrazol-1-yl-ethanone]: the IC50 at human CXCR3A is 15 nM; on CXCR3, 1440 nM.
As to `C[C@@H]1CN(c2sc(C(F)(F)F)nc2-c2nc3ccccc3n2C)CCN1C(=O)Cn1cccn1` [Example 184, 1-{(R)-2-Methyl-4-[4-(1-methyl-1H-benzoimidazol-2-yl)-2-trifluoromethyl-thiazol-5-yl]-piperazin-1-yl}-2-pyrazol-1-yl-ethanone], the 50% inhibitory concentration (IC50) at human CXCR3A came to 53 nM; on CXCR3 it was 3420 nM.
Regarding `COCCn1c(-c2nc(C(F)(F)F)sc2N2CCN(C(=O)Cn3cccn3)[C@H](C)C2)nc2ccccc21` [Example 185, 1-((R)-4-{4-[1-(2-Methoxy-ethyl)-1H-benzoimidazol-2-yl]-2-trifluoromethyl-thiazol-5-yl}-2-methyl-piperazin-1-yl)-2-pyrazol-1-yl-ethanone], the IC50 on human CXCR3A was 37 nM; on CXCR3, 6620 nM.
The corresponding values for `C[C@@H]1CN(c2scnc2-c2nc3ccccc3[nH]2)CCN1C(=O)Cc1ccccc1-n1nccn1` [Example 186, 1-{(R)-4-[4-(1H-Benzoimidazol-2-yl)-thiazol-5-yl]-2-methyl-piperazin-1-yl}-2-(2-[1,2,3]triazol-2-yl-phenyl)-ethanone] are 4 nM and 1610 nM.
With `C[C@@H]1CN(c2scnc2-c2nc3ccccc3[nH]2)CCN1C(=O)CN1C(=O)C(F)(F)c2ccccc21` [Example 187, 1-(2-{(R)-4-[4-(1H-Benzoimidazol-2-yl)-thiazol-5-yl]-2-methyl-piperazin-1-yl}-2-oxo-ethyl)-3,3-difluoro-1,3-dihydro-indol-2-one], the IC50 at human CXCR3A was 0.3 nM; at CXCR3, 1110 nM.
With `C[C@@H]1CN(c2scnc2-c2nc3ccccc3[nH]2)CCN1C(=O)Cn1cc(-c2ccccc2)nn1` [Example 188, 1-{(R)-4-[4-(1H-Benzoimidazol-2-yl)-thiazol-5-yl]-2-methyl-piperazin-1-yl}-2-(4-phenyl-[1,2,3]triazol-1-yl)-ethanone], the IC50 at human CXCR3A came out at 4 nM; at CXCR3, 3820 nM.
Regarding `C[C@@H]1CN(c2sc(C(F)(F)F)nc2-c2nc3ccccc3[nH]2)CCN1C(=O)Cn1cc(-c2ccccc2)nn1` [Example 189, 1-{(R)-4-[4-(1H-Benzoimidazol-2-yl)-2-trifluoromethyl-thiazol-5-yl]-2-methyl-piperazin-1-yl}-2-(4-phenyl-[1,2,3]triazol-1-yl)-ethanone], the IC50 on human CXCR3A was found to be 2 nM; on CXCR3, 1760 nM.
Consider `C[C@@H]1CN(c2sc(C(F)(F)F)nc2-c2nc3ccccc3[nH]2)CCN1C(=O)Cc1cccc2cccnc12` [Example 190, 1-{(R)-4-[4-(1H-Benzoimidazol-2-yl)-2-trifluoromethyl-thiazol-5-yl]-2-methyl-piperazin-1-yl}-2-quinolin-8-yl-ethanone], for which the IC50 on human CXCR3A stood at 1 nM; on CXCR3 it was 514 nM.
For `Cc1cnn(CC(=O)N2CCN(c3sc(C(F)(F)F)nc3-c3nc4ccccc4[nH]3)C[C@H]2C)c1` [Example 191, 1-{(R)-4-[4-(1H-Benzoimidazol-2-yl)-2-trifluoromethyl-thiazol-5-yl]-2-methyl-piperazin-1-yl}-2-(4-methyl-pyrazol-1-yl)-ethanone] the same measures were 1 nM and 470 nM.
Turning to `Cc1cc(C)n(CC(=O)N2CCN(c3sc(C(F)(F)F)nc3-c3nc4ccccc4[nH]3)C[C@H]2C)n1` [Example 192, 1-{(R)-4-[4-(1H-Benzoimidazol-2-yl)-2-trifluoromethyl-thiazol-5-yl]-2-methyl-piperazin-1-yl}-2-(3,5-dimethyl-pyrazol-1-yl)-ethanone], the IC50 at human CXCR3A is 1 nM; on CXCR3, 116 nM.
